Here are results for five compounds from patent publication US6465450B2, “Vanadium (IV) complexes containing catecholate ligand and having spermicidal activity” (Parker Hughes Institute, priority 1999, dated 2002).

pEC50: −log10 of the molar value. Where two headings read alike, the source gives them in different places.

The subject of data set [1] is human sperm. Put plainly: Sperm immobilization assay (SIA), 3 h incubation, motility by CASA. Format: cell-based. The note with it: for pEC50: motile fractions of human sperm incubated 3 h with increasing concentrations, 37° C., read-out: EC50 (concentration of compound required for 50% sperm motility loss). The procedure:
Sperm Immobilization Assay (SIA): To evaluate the spermicidal effects of complexes 1-4 a highly motile fraction of pooled donor sperm(n=5) was prepared by discontinuous (90-45%) Percoll gradient (Conception Technologies, San Diego, Calif.) centrifugation and the “swim-up” method as described previously (Aitken et al., 1989, Biol. Reprod. 40:183-197). All donor specimens were obtained after informed consent and in compliance with the guidelines of the Hughes Institutional Review Board. Motile sperm (≧10×10^6/ml) were suspended in 1 ml of Biggers, Whitten, and Whittingam's medium (BWW) containing 0.3% BSA (fraction V; Sigma Chemical Co., St. Louis, Mo.) in the presence and absence of serial 2-fold dilutions of test substance (250 μM -1.9 μM) in 0.25% dimethyl sulfoxide (DMSO). For each experiment, fresh stock solutions (100 mM) of vanadium compounds were prepared in DMSO. A corresponding volume of DMSO […] was added to control sperm suspension. After 3hours of incubation at 37° C., the percentage of motile sperm was evaluated by computer-assisted sperm motion analysis (CASA) as described previously (Aitken et al., 1989, Supra). The percentages of motilities were compared with those of sham-treated control suspensions of motile sperm. The spermicidal activity of test compounds was expressed as the EC50 values (the final concentration of the compound in medium that decreases the proportion of motile sperm by 50%).
(§1) Sperm Kinematic Parameters: For CASA, 4 μl each of sperm suspension was loaded into two 20 μm Microcell chambers placed onto a counting chamber at 37° C. At least 5-8 fieldsper chamber were scanned for analysis using a Hamilton Thorne Integrated Visual Optical System (IVOS) version 10 instrument (Hamilton Thorne Research Inc., Danvers, Mass.). Each field was recorded for 30 seconds. The Hamilton Thorne computer calibrations were set at 30 frames at a frame rate of 30 images/seconds. Other settings were as follows: minimum contrast 8; minimum size 6; low-size gate, 1.0; high-size gate, 2.9; low-intensity gate, 0.6; high-intensity gate, 1.4; phase-contrast illumination; low path velocity at 10 μm/seconds and threshold straightness at 80%; magnification factor, 1.95. The performance of the analyzer was periodically checked using the playback function.
The attributes of sperm kinematic parameters evaluated included numbers of motile (MOT) and progressively (PRG) motile sperm; curvilinear velocity (VCL; a measure of the total distance traveled by a given sperm during the acquisition divided by the time elapsed); average path velocity (VAP; the spatially averaged path that eliminates the wobble of the sperm head), straight-line velocity (VSL; the straight-line distance from beginning to end of track divided by time taken), beat-cross frequency (BCF; frequency of lateral head displacement), (ALH; the mean width of sperm head oscillation), and the derivatives, straightness (STR=VSL divided by VAP×100), linearity (LIN=VSL divided by VCL×100, departure of sperm track from a straight line). Data from each individual cell track were recorded and analyzed. At least 200 sperm were analyzed for each aliquot sampled.
A non-linear regression analysis was used to find the EC50 and T1/2 values (the concentration of the compound, and the time required for 50% sperm motility loss, respectively) from the concentration effect curves.

In data set [2] the test system is human sperm. Put plainly: Time course of sperm immobilization by CASA. Format: cell-based. The note with it: motile sperm incubated of each complex (footnote); motility by CASA at timed intervals. The procedure:
[…] At timed intervals (every 5 and 10 minutes) aliquots (4μl) were transferred to two 20 μm Microcell (Conception Technologies) chambers, and sperm motility was assessed by CASA.
as §1, with “function. […]” for “function.”

Data set [3] in a line: Stability of the complexes as solids or in solution (cyclic voltammetry and UV-vis spectroscopy). The procedure: UV/Vis Spectra: A UV/vis polarizer attachment was used for the polarization experiments. UV-vis spectra were recorded in a quartz cell or cuvette on a Beckman Model DU 7400 spectrophotometer and the spectral bands were registered in the 200-800 nm range.
Electrochemical Measurements: Electrochemical measurements were performed on a Bioanalytical Systems B/W 100b electrochemical analyzer with internal resistance (IR) compensation. The cyclic voltammograms taken in acetonitrile were obtained in a 0.1 M Bu4NPF6 (TABP) electrolyte solution with a 0.1 M Ag/AgNO3 reference electrode, a Platinum Disc working electrode, and a platinum wire auxiliary electrode. Solutions were purged with nitrogen: and scanned at 200 mV/s. Aqueous cyclic voltammograms were taken in a standard PBS solution, using a Ag/AgCl reference electrode, a glassy carbon working electrode, and a platinum wire auxiliary electrode. Solutions were purged with nitrogen and scanned at 200 mV/s. All potentials were referenced to the ferrocene-ferrocinium couple (E1/2=0.185 V vs Ag/AgCl in PBS).

As to `[O-]c1ccccc1[O-].[V+2].c1cc[cH-]c1.c1cc[cH-]c1` [Cp2V(cat) (2), Vanadocene catecholate.], in data set [1], the pEC50 was 5.62. In addition, the “T1/2 (time required for 50% sperm motility loss)” value in data set [2] stood at 5.8 min.
For “Vanadocene mono-tertbutyl catecholate [Cp2V(mbcat) (3)]”, the pEC50 in data set [1] was 7.00. Besides, in data set [2], the “T1/2 (time required for 50% sperm motility loss)” value stood at 5.4 min.
Consider `[O-]c1c([O-])c(Cl)c(Cl)c(Cl)c1Cl.[V+2].c1cc[cH-]c1.c1cc[cH-]c1` [Cp2V(catCl4) (1), Vanadocene tetrachloro catecholate], for which the solubility in water entry is given as “not soluble in water”. In data set [1] (in the concentration ranges examined), the “spermicidal activity in words” value is reported as “no spermacidal activity”. In addition, the pEC50 in data set [1] was less than 3.60. Also, the “t1/2 (stability)” value in data set [3] (in acetonitrile, air, by cyclic voltammetry and UV-vis spectroscopy) is “about 2 hr”.
Regarding `CC(C)(C)c1cc([O-])c([O-])c(C(C)(C)C)c1.[V+4].c1cc[cH-]c1.c1cc[cH-]c1` [Cp2V(dbcat) (5), Vanadocene 1,3 ditertbutyl catecholate], in data set [3], the “t1/2 (stability)” value is on record as “about 2 min”.
Turning to “Vanadocene 1,3-diisopropyl catecholate [Cp2V(dpcat) (4)]”, the pEC50 in data set [1] is 6.54.
